Assays:
GPX4 mRNA = GPX4 mRNA expression (real time PCR) in Erastin-induced neuronal cells (Example 8); format: cell-based, rat; conditions: Erastin 50 μM
Experimental: Experimental method: Primary neuron cells were incubated in a medium containing Erastin (final concentration of 50 μM) for 24 hours, and then incubated in a medium containing different concentrations of the test drug and Erastin (final concentration of 50 μM) for another 24 hours. After incubation, Real time PCR was used to detect mRNA expression of GPX4 in each group of cells, CCK8 assay was used to detect cell viability in each group of cells, C11-BODIPY probe method was used to detect intracellular lipid ROS levels in each group of cells, and PGSK probe method was used to detect iron content in cells.
The experimental data were expressed in means±SD, and statistical differences between groups were determined using one-way ANOVA and Tukey's test, with p-values less than 0.05 considered significant.
After incubation, real time PCR was used to detect the mRNA expression of GPX4 in each group of cells. The results were presented as Mean±SD. Compared with the control group, ***p<0.0001; Compared with the model group, #p<0.05, […].

[1] = test system: rats with focal cerebral ischemia (MCAO)/reperfusion; experiment: Therapeutic administration, cerebral ischemia-reperfusion injury MCAO/R in rats (Example 7); format: in vivo, rat
Experimental: Experimental method: SD rats were randomly divided into 11 groups, including pseudosurgery group, a model control group, positive control drug edaravone via intravenous injection (6 mg/kg, i.v.) group, positive control drug butylphthalide injection via intravenous injection (5 mg/kg, i.v.) group, compound (1) high-dose (24 mg/kg, i.v.), medium-dose (12 mg/kg, i.v.), low-dose (6 mg/kg, i.v.) via intravenous injection group, positive drug butylphthalide soft capsule via intragastric administration (60 mg/kg, i.g.) group, and compound via intragastric administration at (1) high-dose (60 mg/kg, i.g.), medium-dose (30 mg/kg, i.g.), low-dose (15 mg/kg, i.g.) group. A middle cerebral artery occlusion (MCAO) model for cerebral ischemia-reperfusion of male rats was prepared using the internal carotid suture-occluded method with an ischemic time of 90 min followed by reperfusion. Injection and oral administration for once were performed 1 h after reperfusion, and neurobehavioral scoring was performed on rats after 24 h to determine neurological function in rats; the cerebral infarction rate and cerebral water content of rats were determined by 2,3,5-triphenyltetrazolium chloride (TTC) staining.

[2] = test system: vascular endothelial injury induced thrombosis model in zebrafish; experiment: Preventative effect on vascular endothelial injury induced thrombosis, ponatinib zebrafish model (Example 1); format: in vivo; conditions: 4.00 ng/tail injected
Experimental: Experimental method: 420 tails of 5 dpf wild type AB strain zebrafish were randomly selected and placed in a six-well plate, with 30 fish per well (experimental group). The fish were injected with compound (1), compound (2), compound (3), compound (4), compound (5), compound (6), compound (7), compound (8), compound (9), compound (10), and compound (11) (structural formula shown in Table 1) at a dose of 4.00 ng/tail, with positive control drug acetylsalicylic acid being administered by dissolving it in water at a concentration of 30.0 µg/mL. Normal control group (i.e. zebrafish treated with standard diluted water) and model control group were set up, with a capacity of 3 mL per well (experimental group). Except for normal control group, the remaining experimental groups were all given Punatinib by dissolving it in water to induce vascular endothelial injury induced thrombosis model in zebrafish. The zebrafish were stained with o-dianisidine after co-treatment with ponatinib and samples for a period of time under incubation conditions at 28° C.
After staining, 10 zebrafish in each group were randomly selected and photographed under the microscope, and the intensity of cardiac erythrocyte staining in zebrafish was analyzed using NIS-Elements D 3.20 advanced image-processing software, and the samples were evaluated for the preventative effect on vascular endothelial injury induced thrombosis by the statistical results of cardiac erythrocyte staining intensity.
The preventative effect on thrombosis is calculated as follows: […]
Statistical analysis was performed using SPSS software, and p<0.05 indicates significant differences

[3] = test system: vascular endothelial-injury thrombosis model in zebrafish; experiment: Preventative effect of compound (1) on vascular endothelial injury induced thrombosis in zebrafish (Example 3); format: in vivo; conditions: for Cardiac erythrocyte staining intensity (pixels, mean ± SE): n = 10
Experimental: Experimental method: Wild-type AB strain zebrafish were treated with 4 μg/mL punatinib for 18 h to establish vascular endothelial-injury thrombosis model in zebrafish. 150 of 5 dpf wild-type AB strain zebrafish were randomly selected and placed in six-well plates with 30 fish per well (experimental group). The zebrafish were injected with compound (1) at a dose of 2.06 ng/tail, and 6.18 ng/tail, and the positive control drug acetylsalicylic acid was given by dissolving it in water with a concentration of 30 µg/mL, while the normal control group (i.e., zebrafish treated with standard dilution water) and the model control group were set up, and the volume of each well (experimental group) was 3 mL. Except for normal control group, the remaining experimental groups were all given Punatinib by dissolving it in water to induce vascular endothelial injury thrombosis model in zebrafish. The zebrafish were co-treated with compound (1) and punatinib for a period of time under incubation condition at 28° C., and then stained with o-dianisidine. After staining, 10 zebrafish were randomly selected from each group and photographed under the microscope. The intensity of cardiac erythrocyte staining in zebrafish was analyzed using NIS-Elements D 3.10 advanced image-processing software, and the preventative effect of compound (I) on vascular endothelial injury thrombosis was evaluated based on the statistical results of cardiac erythrocyte staining intensity. The preventative effect on thrombosis is calculated as follows: […]
Statistical analysis were performed using Analysis of Variance and Dunnett's t-test, and p<0.05 indicates a significant difference, providing a representative experimental plot.

Question: Which “Expression of GPX4 mRNA” value (GPX4 mRNA; 1 μM, control about 1.00, Mean±SD) does the source give for `CC(=O)N[C@H](CSCC1OC2OC3C(CSC[C@@H](NC(C)=O)C(=O)[O-])OC(OC4C(CSC[C@@H](NC(C)=O)C(=O)[O-])OC(OC5C(CSC[C@@H](NC(C)=O)C(=O)[O-])OC(OC6C(CSC[C@@H](NC(C)=O)C(=O)[O-])OC(OC7C(CSC[C@@H](NC(C)=O)C(=O)[O-])OC(OC8C(CSC[C@@H](NC(C)=O)C(=O)[O-])OC(OC9C(CSC[C@@H](NC(C)=O)C(=O)[O-])OC(OC1C(O)C2O)C(O)C9O)C(O)C8O)C(O)C7O)C(O)C6O)C(O)C5O)C(O)C4O)C(O)C3O)C(=O)[O-].[Na+].[Na+].[Na+].[Na+].[Na+].[Na+].[Na+].[Na+]` (stereo partly drawn) [Compound (1)] here?
Answer: 0.4845 ± 0.06^

Question: What about the “Expression of GPX4 mRNA” value (GPX4 mRNA; 2.5 μM) of the same compound?
Answer: 0.5759 ± 0.07^

Question: What about the “Expression of GPX4 mRNA” value (GPX4 mRNA; 5 μM) of the same compound?
Answer: 0.6469 ± 0.08^#

Question: And the “Expression of GPX4 mRNA” value (GPX4 mRNA; 10 μM)?
Answer: 0.7093 ± 0.15^##

Question: What about the “Expression of GPX4 mRNA” value (GPX4 mRNA; 20 μM) of the same compound?
Answer: 0.7664 ± 0.08^##

Question: What about the “Expression of GPX4 mRNA” value (GPX4 mRNA; 40 μM) of the same compound?
Answer: 0.8503 ± 0.06^##

Question: What about the Behavioral score ([1]; 6 mg/kg i.v. low-dose) of the same compound?
Answer: 2.13 ± 0.35

Question: And the “Cerebral infarction rate (%)” value ([1]; 6 mg/kg i.v. low-dose)?
Answer: 30.03 ± 7.79%

Question: And the “Cerebral water content (%)” value ([1]; 6 mg/kg i.v. low-dose)?
Answer: 82.30 ± 1.04 %

Question: What about the Behavioral score ([1]; 12 mg/kg i.v. medium-dose) of the same compound?
Answer: 1.88 ± 0.35

Question: And the “Cerebral infarction rate (%)” value ([1]; 12 mg/kg i.v. medium-dose)?
Answer: 16.94 ± 9.52 %

Question: What about the “Cerebral water content (%)” value ([1]; 12 mg/kg i.v. medium-dose) of the same compound?
Answer: 80.74 ± 0.89 %

Question: What about the Behavioral score ([1]; 15 mg/kg i.g. low-dose) of the same compound?
Answer: 2.25 ± 0.71

Question: What about the “Cerebral infarction rate (%)” value ([1]; 15 mg/kg i.g. low-dose) of the same compound?
Answer: 29.49 ± 5.93%

Question: What about the “Cerebral water content (%)” value ([1]; 15 mg/kg i.g. low-dose) of the same compound?
Answer: 82.24 ± 1.49%

Question: What about the Behavioral score ([1]; 24 mg/kg i.v. high-dose) of the same compound?
Answer: 1.62 ± 0.52

Question: What about the “Cerebral water content (%)” value ([1]; 24 mg/kg i.v. high-dose) of the same compound?
Answer: 79.95 ± 1.16 %

Question: And the “Cerebral infarction rate (%)” value ([1]; 24 mg/kg i.v. high-dose, 1 h after reperfusion)?
Answer: 11.64 ± 9.38 %

Question: What about the Behavioral score ([1]; 30 mg/kg i.g. medium-dose) of the same compound?
Answer: 2.00 ± 0.53

Question: And the “Cerebral infarction rate (%)” value ([1]; 30 mg/kg i.g. medium-dose)?
Answer: 21.52 ± 11.04 %

Question: And the “Cerebral water content (%)” value ([1]; 30 mg/kg i.g. medium-dose)?
Answer: 80.61 ± 1.21 %

Question: What about the Behavioral score ([1]; 60 mg/kg i.g. high-dose) of the same compound?
Answer: 1.62 ± 0.52

Question: And the “Cerebral infarction rate (%)” value ([1]; 60 mg/kg i.g. high-dose)?
Answer: 13.61 ± 10.24 %

Question: And the “Cerebral water content (%)” value ([1]; 60 mg/kg i.g. high-dose)?
Answer: 79.87 ± 1.71 %

Question: What about the “Preventative effect on thrombosis (%)” value [2] of the same compound?
Answer: 66%

Question: What about the “Cardiac erythrocyte staining intensity (pixels, mean ± SE)” value ([2]; n = 10) of the same compound?
Answer: 4397 ± 454 pixels

Question: And the “Cardiac erythrocyte staining intensity (pixels, mean ± SE)” value ([2]; n = 10, listed as compound (1))?
Answer: 4397 pixels

Question: And the “Thromboprophylactic effect (%)” value ([3]; 2.06 ng/tail)?
Answer: 83%

Question: And the “Cardiac erythrocyte staining intensity (pixels, mean ± SE)” value ([3]; 2.06 ng/tail)?
Answer: 4601 ± 265 pixels

Question: And the “Cardiac erythrocyte staining intensity (pixels, mean ± SE)” value ([3]; 2.06 ng/tail, listed as compound (1))?
Answer: 4601 pixels

Question: And the “Thromboprophylactic effect (%)” value ([3]; 6.18 ng/tail)?
Answer: 99%

Question: And the “Cardiac erythrocyte staining intensity (pixels, mean ± SE)” value ([3]; 6.18 ng/tail)?
Answer: 5044 ± 345 pixels

Question: What about the “Cardiac erythrocyte staining intensity (pixels, mean ± SE)” value ([3]; 6.18 ng/tail, listed as compound (1)) of the same compound?
Answer: 5044 pixels

— patent US20250064886A1, “CARDIOVASCULAR AND CEREBROVASCULAR DRUG AND USE THEREOF” (HANGZHOU ADAMERCK PHARMLABS INC., priority 2021, published 2025)
